Reference: patent US10364270B2, “Eye-care peptide, its composition and method of using the same” (PRO SUNFUN BIOTECH RESEARCH AND DEVELOPMENT CO., LTD., priority 2017, dated 2019)
Peptide text beside a SMILES is read from it.

Test system: HCEC cells
Test: MTT assay, viability of HCEC cells
Type: cell-based, Human
Procedure: Human corneal epithelial cell line, HCEC, was cultured in complete KSF containing keratinocyte-serum free medium, 5 ng/ml human recombinant EGF, 0.05 mg/ml bovine pituitary extract, 0.005 mg/ml insulin and 500 ng/ml hydrocortisone under 5% CO2 at 37° C.
Cells (2×10^4) in 1 ml complete KSF were seeded in 12-well plates with or without Peptide NO. 12. Seventy microliters of 5 mg/ml 3-(4,5-dimethyl-2-thiazolyl)-2,5-diphenyl-2H-tetrazolium bromide solution (MTT; Sigma) was added to each well for the indicated times and incubated at 37° C. for 3 hours, after which 700 μl 10% SDS in 0.01 N HCl was added to dissolve the MTT formazan crystals. The resultant optical density was measured spectrophotometrically at dual wavelengths, 550 and 630 nm.

CC(C)C[C@H](NC(=O)[C@@H]1CCCN1C(=O)[C@H](CC(N)=O)NC(=O)[C@@H](N)CCCNC(=N)N)C(=O)N[C@@H](CCC(=O)O)C(=O)N[C@@H](CCC(=O)O)C(=O)N[C@H](C(=O)O)[C@@H](C)O [Peptide NO. 12, ArgAsnProLeuGluGluThr] (H-RNPLEET-OH; N-terminus and C-terminus assumed)
viability of HCEC cells (24 hours, 5, 10, 25 and 50 μg/ml, FIG. 3): did not significantly affect viability of HCEC cells
viability of HCEC cells (48 hours, 5, 10, 25 and 50 μg/ml, FIG. 4): did not significantly affect viability of HCEC cells
